# Reference: patent US20250090699A1, “FAP TARGETING CYCLIC PEPTIDES AND CONJUGATES THEREOF” (Novartis AG, priority 2023, published 2025)
# Structures can show the parent of a compound that is named as a salt. Starred links: 1 amine or outer side, 2 acyl side, 3 side chain; linkers in the order of their positions; H or OH if unused. Non-standard residues stand in square brackets, D forms with d. Residues, ends and D or L forms follow the SMILES beside them. Groups on a side chain read outwards from the residue. *: point of attachment. F4(METRIAZOLYLMENHDOTA-Lu) = Phe with 4-(methyl-triazolyl-methyl-NH-DOTA), Lu complex; DOTA = O=C(O)CN1CCN(CC(=O)O)CCN(CC(=O)*)CCN(CC(=O)O)CC1; Trp(7-OMe) = COc1cccc2c(C[C@H](N)C(=O)O)c[nH]c12; Trp(6-OH) = N[C@@H](Cc1c[nH]c2cc(O)ccc12)C(=O)O; Phe(4-CH2NH2) = NCc1ccc(C[C@H](N)C(=O)O)cc1; Piperazinyl(4-CH2COOH) = O=C(O)CN1CCN(*)CC1; X7 = CCCCC[C@@H](O)[C@H](N[*:1])C(=O)[*:2]; NMeY = CN[C@@H](Cc1ccc(O)cc1)C(=O)O; NMeCba = CN[C@@H](CC1CCC1)C(=O)O; NMeF = CN[C@@H](Cc1ccccc1)C(=O)O; Ahp(2) = CCCCC[C@H](N)C(=O)O; hSer = N[C@@H](CCO)C(=O)O; Orn = NCCC[C@H](N)C(=O)O; AEEA = NCCOCCOCC(=O)O; CO = O=C([*:1])[*:2]
# What was measured:
# mouse FAP [1] = biological target: T1, mouse FAP (Mus musculus, UniProt P97321); assay: Surface plasmon resonance (SPR) for peptide affinity, mouse FAP; assay type: binding
# T1 construct: biotinylated His, Avi tag, mouse FAP (26-761, FAP-M82Q5); His; Avi tag (biotinylated); purchased AcroBiosystems FAP-M82Q5
# T1 sequence (P97321 26-761): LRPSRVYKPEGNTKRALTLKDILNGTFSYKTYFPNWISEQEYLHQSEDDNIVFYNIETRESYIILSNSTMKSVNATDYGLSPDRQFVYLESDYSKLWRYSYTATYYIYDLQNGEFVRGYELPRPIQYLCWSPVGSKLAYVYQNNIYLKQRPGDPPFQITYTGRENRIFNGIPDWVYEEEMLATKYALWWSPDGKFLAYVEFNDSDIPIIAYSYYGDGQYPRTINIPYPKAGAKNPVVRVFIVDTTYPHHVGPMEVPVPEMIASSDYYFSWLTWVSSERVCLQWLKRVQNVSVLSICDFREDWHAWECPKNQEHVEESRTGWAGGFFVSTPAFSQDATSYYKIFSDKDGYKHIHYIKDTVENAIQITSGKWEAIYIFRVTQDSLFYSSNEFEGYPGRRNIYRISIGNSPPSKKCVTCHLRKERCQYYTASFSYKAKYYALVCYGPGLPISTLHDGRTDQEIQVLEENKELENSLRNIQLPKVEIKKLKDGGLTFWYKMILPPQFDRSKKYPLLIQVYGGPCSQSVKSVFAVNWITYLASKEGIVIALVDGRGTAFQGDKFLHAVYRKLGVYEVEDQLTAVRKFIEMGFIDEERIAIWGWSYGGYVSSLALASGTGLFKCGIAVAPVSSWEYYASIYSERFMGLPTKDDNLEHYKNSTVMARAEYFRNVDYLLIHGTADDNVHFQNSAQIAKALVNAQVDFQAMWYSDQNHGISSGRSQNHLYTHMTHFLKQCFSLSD
# Outline: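 KD values come from a 1:1 kinetic fit of single-cycle SPR data: 8 peptide concentrations, 25 °C, 30 μL/min, HEPES-buffered saline pH 7.6 with 2% DMSO. Targets were His/Avi-tagged human (26-760) or mouse (26-761) FAP, amine-coupled to CM5 or held on a CAPture chip.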
# human FAP = biological target: T2, human FAP (Homo sapiens, UniProt Q12884); assay: Enzymatic FAP competition assay (Z-Gly-Pro-AMC fluorescence), human FAP; assay type: biochemical; conditions: read-out: h. FAP, Enz., IC50
# T2 construct: the biotinylated His, Avi tag, human FAP (26-760, FAP-H82Q6); His; Avi tag (biotinylated); purchased AcroBiosystems FAP-H82Q6
# T2 sequence (Q12884 26-760): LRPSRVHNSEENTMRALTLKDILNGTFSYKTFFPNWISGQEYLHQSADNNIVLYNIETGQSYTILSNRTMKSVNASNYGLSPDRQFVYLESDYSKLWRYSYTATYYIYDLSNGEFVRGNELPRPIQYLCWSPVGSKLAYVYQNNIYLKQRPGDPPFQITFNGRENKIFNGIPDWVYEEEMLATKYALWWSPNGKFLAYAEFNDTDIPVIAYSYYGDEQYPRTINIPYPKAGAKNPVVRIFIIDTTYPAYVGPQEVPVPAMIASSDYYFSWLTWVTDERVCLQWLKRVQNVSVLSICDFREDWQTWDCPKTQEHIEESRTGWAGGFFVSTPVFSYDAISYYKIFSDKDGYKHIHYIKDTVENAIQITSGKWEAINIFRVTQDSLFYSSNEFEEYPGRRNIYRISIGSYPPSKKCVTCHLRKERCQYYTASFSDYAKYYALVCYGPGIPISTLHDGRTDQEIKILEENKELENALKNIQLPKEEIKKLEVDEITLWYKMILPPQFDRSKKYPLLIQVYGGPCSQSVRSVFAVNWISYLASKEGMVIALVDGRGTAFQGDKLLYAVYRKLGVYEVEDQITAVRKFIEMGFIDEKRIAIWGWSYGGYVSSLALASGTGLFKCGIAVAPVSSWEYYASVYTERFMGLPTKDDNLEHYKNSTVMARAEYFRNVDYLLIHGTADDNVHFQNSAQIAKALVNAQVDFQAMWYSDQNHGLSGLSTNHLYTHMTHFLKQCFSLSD
# Outline: (§1)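 IC50 values come from curve fitting of duplicate % inhibition data on AMC fluorescence (ex 380, em 460 nm) after 4 h at 22-24° C with 50 μM Z-Gly-Pro-AMC. Beforehand, peptides up to 1 μM (14 levels) sat 24 h with 0.01 nM human (26-760) or mouse (26-761) tagged FAP in phosphate buffer pH 7.5, NaCl, Tween20, 1% DMSO.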
# mouse FAP [2] = biological target: T1, mouse FAP; assay: Enzymatic FAP competition assay (Z-Gly-Pro-AMC fluorescence), mouse FAP; assay type: biochemical; conditions: read-out: m. FAP, Enz., IC50
# Outline: as §1
Kd (mouse FAP [1]),IC50 (human FAP),IC50 (mouse FAP [2]),Molecule
0.32 nM,0.063 nM,0.31 nM,"CCCCC[C@@H]1NC(=O)[C@H](Cc2ccc(O)cc2)NC(=O)[C@H](CC2CCC2)N(C)C(=O)CNC(=O)CNC(=O)[C@H]2CCCN2C(=O)[C@H](CC(=O)O)NC(=O)[C@H](Cc2ccc(O)cc2)NC(=O)CNC(=O)[C@H](Cc2c[nH]c3ccccc23)NC1=O [Example A62, Gly-Gly-NMecBuA-Tyr-Ahp-Trp-Gly-Tyr-Asp-D-Pro] (cyclo([Ahp(2)]WGYD[dP]GG[NMeCba]Y))"
0.25 nM,0.055 nM,0.4 nM,"CCCCC[C@@H](O)[C@@H]1NC(=O)[C@H](Cc2ccc(O)cc2)NC(=O)[C@H](Cc2ccccc2)N(C)C(=O)CNC(=O)CNC(=O)[C@H]2CCCN2C(=O)[C@H](CC(=O)O)NC(=O)[C@H](Cc2ccc(O)cc2)NC(=O)CNC(=O)[C@H](Cc2c[nH]c3ccccc23)NC1=O [Example A34, Gly-Gly-NMePhe-Tyr-Aoc(3R-OH)-Trp-Gly-Tyr-Asp-D-Pro] (cyclo(D[dP]GG[NMeF]Y[X7]WGY))"
0.219 nM,0.045 nM,0.138 nM,"CCCCC[C@@H]1NC(=O)[C@H](Cc2ccc(CNC(=O)COCCOCCN)cc2)NC(=O)[C@H](Cc2ccccc2)N(C)C(=O)CNC(=O)CNC(=O)[C@H]2CCCN2C(=O)[C@H](CC(=O)O)NC(=O)[C@H](Cc2ccc(O)cc2)NC(=O)CNC(=O)[C@H](Cc2c[nH]c3ccccc23)NC1=O [Example A27, Gly-Gly-NMePhe-F(4amPEG2NH2)-Ahp-Trp-Gly-Tyr-Asp-D-Pro] (cyclo([Ahp(2)]WGYD[dP]GG[NMeF][Phe(4-CH2NH2)](AEEA)))"
15 nM,5.7 nM,14 nM,"CCCCC[C@@H]1NC(=O)[C@H](Cc2ccc(O)cc2)NC(=O)[C@H](Cc2ccccc2)N(C)C(=O)[C@H](CCC(=O)O)NC(=O)[C@H](CCCCN)NC(=O)[C@H]2CCCN2C(=O)[C@H](CC(=O)O)NC(=O)[C@H](Cc2ccc(O)cc2)NC(=O)CNC(=O)[C@H](Cc2c[nH]c3ccccc23)NC1=O [Example A21, Lys-Glu-NMePhe-Tyr-Ahp-Trp-Gly-Tyr-Asp-D-Pro, TFA salt] (cyclo([Ahp(2)]WGYD[dP]KE[NMeF]Y))"
0.85 nM,0.37 nM,1.3 nM,"CCCCC[C@@H]1NC(=O)[C@H](Cc2ccc(O)cc2)NC(=O)[C@H](Cc2ccccc2)N(C)C(=O)CNC(=O)[C@H](CCCCN)NC(=O)[C@H]2CCCN2C(=O)[C@H](CC(=O)O)NC(=O)[C@H](Cc2ccc(O)cc2)NC(=O)CNC(=O)[C@H](Cc2c[nH]c3cc(O)ccc23)NC1=O [Example A24, Lys-Gly-NMePhe-Tyr-Ahp-W(6OH)-Gly-Tyr-Asp-D-Pro, TFA salt] (cyclo([Ahp(2)][Trp(6-OH)]GYD[dP]KG[NMeF]Y))"
2.8 nM,0.95 nM,2.4 nM,"CCCCC[C@@H]1NC(=O)[C@H](Cc2ccc(O)cc2)NC(=O)[C@H](Cc2ccccc2)N(C)C(=O)CNC(=O)CNC(=O)[C@H]2CCCN2C(=O)[C@H](CC(=O)O)NC(=O)[C@H](Cc2ccc(O)cc2)N(C)C(=O)CNC(=O)[C@H](Cc2c[nH]c3ccccc23)NC1=O [Example A50, 2-((9S,12S,15S,18S,24S,27S,32aR)-18-((1H-indol-3-yl)methyl)-9-benzyl-12,24-bis(4-hydroxybenzyl)-8,23-dimethyl-1,4,7,10,13,16,19,22,25,28-decaoxo-15-pentyldotriacontahydropyrrolo[1,2-a][1,4,7,10,13,16,19,22,25,28]decaazacyclotriacontin-27-yl)acetic acid] (cyclo([Ahp(2)]WG[NMeY]D[dP]GG[NMeF]Y))"
0.2 nM,0.089 nM,0.36 nM,"CCCCC[C@@H]1NC(=O)[C@H](Cc2ccc(O)cc2)NC(=O)[C@H](Cc2ccccc2)N(C)C(=O)CNC(=O)[C@H](CCO)NC(=O)[C@H]2CCCN2C(=O)[C@H](CC(=O)O)NC(=O)[C@H](Cc2ccc(O)cc2)NC(=O)CNC(=O)[C@H](Cc2c[nH]c3ccccc23)NC1=O [Example A42, hSer-Gly-NMePhe-Tyr-Ahp-Trp-Gly-Tyr-Asp-D-Pro] (cyclo([Ahp(2)]WGYD[dP][hSer]G[NMeF]Y))"
8.7 nM,2.6 nM,8.7 nM,"CCCCC[C@@H]1NC(=O)[C@H](Cc2ccc(O)cc2)NC(=O)[C@H](Cc2ccccc2)NC(=O)[C@H](CCC(=O)O)NC(=O)[C@H](CCCCN)NC(=O)[C@H]2CCCN2C(=O)[C@H](CC(=O)O)NC(=O)[C@H](Cc2ccc(O)cc2)NC(=O)CNC(=O)[C@H](Cc2c[nH]c3ccccc23)NC1=O [Example A20, Lys-Glu-Phe-Tyr-Ahp-Trp-Gly-Tyr-Asp-D-Pro] (cyclo([Ahp(2)]WGYD[dP]KEFY))"
0.048 nM,0.009 nM,0.024 nM,Gly-Gly-NMePhe-F4(METRIAZOLYLMENHDOTA-Lu)-Ahp-Trp-Gly-Tyr-Asp-D-Pro (cyclo(GG[NMeF][F4(METRIAZOLYLMENHDOTA-Lu)][Ahp(2)]WGYD[dP]); also: Lu complex) [Example C14]
0.47 nM,0.203 nM,0.57 nM,"CCCCC[C@@H]1NC(=O)[C@H](Cc2ccc(O)cc2)NC(=O)[C@H](Cc2ccccc2)N(C)C(=O)CNC(=O)CNC(=O)[C@H]2CCCN2C(=O)[C@H](CC(=O)O)NC(=O)[C@H](CCCNC(=O)N2CCN(CC(=O)O)CC2)NC(=O)CNC(=O)[C@H](Cc2c[nH]c3ccccc23)NC1=O [Example A4, Gly-Gly-NMePhe-Tyr-Ahp-Trp-Gly-Orn(COPipzaa)-Asp-D-Pro, TFA salt] (cyclo([Ahp(2)]WG[Orn]([CO-Piperazinyl(4-CH2COOH)])D[dP]GG[NMeF]Y))"
0.162 nM,0.065 nM,0.3 nM,"CCCCC[C@@H]1NC(=O)[C@H](Cc2ccc(O)cc2)NC(=O)[C@H](Cc2ccccc2)N(C)C(=O)CNC(=O)CNC(=O)[C@H]2CCCN2C(=O)[C@H](CC(=O)O)NC(=O)[C@H](Cc2ccc(O)cc2)NC(=O)CNC(=O)[C@H](Cc2c[nH]c3c(OC)cccc23)NC1=O [Example A61, Gly-Gly-NMePhe-Tyr-Ahp-W(7OMe)-Gly-Tyr-Asp-D-Pro] (cyclo([Ahp(2)][Trp(7-OMe)]GYD[dP]GG[NMeF]Y))"
32 nM,4.2 nM,31 nM,"CCCCC[C@@H]1NC(=O)[C@H](Cc2ccc(O)cc2)NC(=O)[C@H](Cc2ccccc2)N(C)C(=O)CNC(=O)CNC(=O)[C@H]2CCCN2C(=O)[C@H](C)NC(=O)[C@H](Cc2ccc(O)cc2)NC(=O)CNC(=O)[C@H](Cc2c[nH]c3ccccc23)NC1=O [Example A56, Gly-Gly-NMePhe-Tyr-Ahp-Trp-Gly-Tyr-Ala-D-Pro] (cyclo(A[dP]GG[NMeF]Y[Ahp(2)]WGY))"

Molecule,Kd (mouse FAP [1]),IC50 (human FAP),IC50 (mouse FAP [2])
"CCCCC[C@@H]1NC(=O)[C@H](Cc2ccc(CNC(=O)COCCOCCNC(=O)CN3CCN(CC(=O)O)CCN(CC(=O)O)CCN(CC(=O)O)CC3)cc2)NC(=O)[C@H](Cc2ccccc2)N(C)C(=O)CNC(=O)CNC(=O)[C@H]2CCCN2C(=O)[C@H](CC(=O)O)NC(=O)[C@H](Cc2ccc(O)cc2)NC(=O)CNC(=O)[C@H](Cc2c[nH]c3ccccc23)NC1=O [Example B16, Gly-Gly-NMePhe-F(4amPEG2NHDOTA)-Ahp-Trp-Gly-Tyr-Asp-D-Pro, TFA salt] (cyclo([Ahp(2)]WGYD[dP]GG[NMeF][Phe(4-CH2NH2)]([AEEA-DOTA])))",0.01 nM,0.009 nM,0.03 nM
